According to the supplement of paper PMC10307832:

Assays:
[1] = compound: CC1CC(=O)N(C2=CN=C(N=C2N1C3CCCC3)NC4=C(C=C(C=C4)C(=O)NC5CCN(CC5)C)OC)C [NPK76-II-72-1] + CCNC(=O)c1noc(-c2cc(C(C)C)c(O)cc2O)c1-c1ccc(CN2CCOCC2)cc1 [Luminespib] (partner 0.01 µM); experiment: relative viability (nuclei count vs DMSO), 5 days (fraction); higher = more cells survive
Procedure, shortened: (§1)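 Five library-drug doses in √10 steps were combined with a fixed anchor-drug dose, or a single drug was given alone, by pin tool to lung cancer cell lines in 1536-well plates the day after seeding. Nuclei were stained and counted after 5 days. Relative viability is the nuclei count in treated wells over that in vehicle wells, taken as the median of duplicate plates.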

[2] = compound: CC1CC(=O)N(C2=CN=C(N=C2N1C3CCCC3)NC4=C(C=C(C=C4)C(=O)NC5CCN(CC5)C)OC)C [NPK76-II-72-1] + Cc1nc(Nc2ncc(C(=O)Nc3c(C)cccc3Cl)s2)cc(N2CCN(CCO)CC2)n1 [Dasatinib] (partner 0.075 µM); experiment: as above
Procedure, shortened: as §1

Cell Line | relative viability ([1]; first compound 0.01 µM) | relative viability ([1]; first compound 0.03162 µM) | relative viability ([1]; first compound 0.1 µM) | relative viability ([1]; first compound 0.3162 µM) | relative viability ([1]; first compound 1 µM) | relative viability ([2]; first compound 0.01 µM) | relative viability ([2]; first compound 0.03162 µM) | relative viability ([2]; first compound 0.1 µM) | relative viability ([2]; first compound 0.3162 µM) | relative viability ([2]; first compound 1 µM)
NCI-H650 | 0.72 | 0.843 | 0.718 | 0.615 | 0.891 | 0.457 | 0.455 | 0.411 | 0.423 | 0.494
COR-L23 | 0.655 | 0.789 | 0.746 | 0.711 | 0.761 | 0.439 | 0.533 | 0.554 | 0.433 | 0.526
COR-L 105 | 0.782 | 0.642 | 0.934 | 0.508 | 0.704 | 0.33 | 0.317 | 0.384 | 0.323 | 0.467
LK-2 | 0.183 | 0.214 | 0.215 | 0.191 | 0.191 | 0.299 | 0.275 | 0.322 | 0.233 | 0.244
201T | 1.05 | 1.04 | 0.998 | 1.04 | 1.09 | 0.574 | 0.614 | 0.52 | 0.525 | 0.59
HCC-44 | 0.977 | 1.26 | 0.996 | 1.02 | 1.2 |  |  |  |  | 
NCI-H596 | 0.871 | 1.18 | 0.975 | 1.03 | 1.12 | 0.544 | 0.668 | 0.551 | 0.591 | 0.557
H3255 | 0.871 | 0.76 | 0.55 | 0.675 | 0.891 | 0.406 | 0.314 | 0.323 | 0.245 | 0.35
NCI-H647 | 0.189 | 0.188 | 0.143 | 0.202 | 0.23 | 0.215 | 0.212 | 0.131 | 0.146 | 0.169
NCI-H2023 | 0.766 | 1.03 | 0.871 | 0.594 | 0.888 | 0.511 | 0.63 | 0.605 | 0.583 | 0.603
NCI-H23 | 0.237 | 0.209 | 0.228 | 0.228 | 0.201 | 0.752 | 0.771 | 0.565 | 0.859 | 0.776
NCI-H1944 | 0.743 | 0.781 | 0.722 | 0.723 | 0.807 | 0.205 | 0.219 | 0.224 | 0.221 | 0.226
NCI-H1793 | 0.144 | 0.166 | 0.203 | 0.176 | 0.201 | 0.328 | 0.432 | 0.412 | 0.383 | 0.386
NCI-H520 | 0.206 | 0.24 | 0.285 | 0.181 | 0.245 | 0.203 | 0.172 | 0.178 | 0.187 | 0.252
NCI-H460 | 0.0406 | 0.0404 | 0.0346 | 0.0272 | 0.0329 | 0.512 | 0.543 | 0.497 | 0.458 | 0.501
EKVX | 0.735 | 0.863 | 0.912 | 0.888 | 0.95 | 0.58 | 0.528 | 0.519 |  | 0.652
NCI-H358 | 0.21 | 0.431 | 0.521 |  | 0.839 | 0.162 | 0.14 | 0.156 |  | 0.149

Cell Line | relative viability ([1]; first compound 0.01 µM) | relative viability ([1]; first compound 0.03162 µM) | relative viability ([1]; first compound 0.1 µM) | relative viability ([1]; first compound 0.3162 µM) | relative viability ([1]; first compound 1 µM) | relative viability ([2]; first compound 0.01 µM) | relative viability ([2]; first compound 0.03162 µM) | relative viability ([2]; first compound 0.1 µM) | relative viability ([2]; first compound 0.3162 µM) | relative viability ([2]; first compound 1 µM)
EPLC-272H | 0.161 |  | 0.313 | 0.264 | 0.58 | 0.318 |  | 0.332 | 0.251 | 0.357
NCI-H1563 | 0.5 | 0.627 | 0.578 | 0.519 | 0.504 | 0.465 | 0.416 | 0.469 | 0.461 | 0.425
NCI-H1395 | 0.774 | 0.76 | 0.678 | 0.709 | 0.863 | 0.433 | 0.36 | 0.424 | 0.417 | 0.369
NCI-H2126 | 0.88 | 0.907 | 0.933 | 0.814 | 0.901 | 0.594 | 0.591 | 0.58 | 0.607 | 0.709
LXF-289 | 0.614 | 0.761 | 0.675 | 0.694 | 0.688 | 0.211 | 0.199 | 0.199 | 0.218 | 0.238
NCI-H2009 | 0.976 | 1.1 | 1.01 | 1.07 | 1.04 | 0.297 | 0.342 | 0.301 | 0.287 | 0.317
SW 900 | 0.183 | 0.19 | 0.171 | 0.169 | 0.169 | 0.496 | 0.574 | 0.378 | 0.78 | 0.572
NCI-H2405 | 0.625 | 0.688 | 0.773 | 0.771 | 0.93 | 0.236 | 0.209 | 0.194 | 0.213 | 0.212
NCI-H1755 | 0.579 | 0.563 | 0.264 | 0.371 | 0.503 | 0.377 | 0.448 | 0.429 | 0.357 | 0.497
HCC-78 |  |  |  |  |  | 0.384 | 0.363 | 0.449 | 0.346 | 0.402
LOU-NH91 | 0.305 | 0.324 | 0.347 | 0.33 | 0.345 | 0.52 | 0.498 | 0.528 | 0.401 | 0.612
NCI-H3122 | 0.095 | 0.101 | 0.113 | 0.0814 | 0.079 | 0.796 | 0.802 | 0.76 | 0.697 | 0.956
HCC-827 | 0.602 | 0.619 | 0.447 | 0.879 | 0.702 | 0.252 | 0.319 | 0.435 | 0.388 | 0.37
SK-LU-1 | 0.181 | 0.206 | 0.213 | 0.196 | 0.209 | 0.188 | 0.181 | 0.207 | 0.202 | 0.172
NCI-H1975 | 0.23 | 0.196 | 0.183 | 0.243 | 0.294 | 0.336 | 0.402 | 0.359 | 0.439 | 0.382
NCI-H1651 | 0.925 | 0.995 | 0.698 | 0.743 | 0.852 | 0.386 | 0.46 | 0.413 | 0.429 | 0.419
NCI-H441 | 0.35 | 0.348 | 0.299 | 0.425 | 0.536 | 0.565 | 0.709 | 0.452 | 0.541 | 0.727
